{"source": "patent US20130090327A1", "about": "“Inhibitors of Protein Tyrosine Kinase Activity” (METHYLGENE INC., priority 2011, published 2013)", "key": {"[1]": {"test_system": "choroidal neovascularization (CNV)", "assay": "In Vivo Choroidal Neovascularization (CNV) Model", "set-up": "species or system Brown-Norway rats", "details": "for CNV area, average: group average, Day 10, rat; for CNV area, individual animal: injection on Day 3, measured Day 10, rat; for CNV area % of control / inhibition (CNV area): versus vehicle group, rat", "from_the_text": "In Vivo Choroidal Neovascularization (CNV) Model\nThis test measures the capacity of compounds to inhibit CNV progression. CNV is the main cause of severe vision loss in patients suffering from age-related macular degeneration (AMD).\nMale Brown-Norway rats (Charles River Japan Co., Ltd.) were used in these studies.\nRats were anesthetized by intraperitoneal injection of pentobarbital, and the right pupil was dilated with 0.5% tropicamide and 0.5% phenylephrine hydrochloride. The right eye received 6 laser burns between retinal vessels using a slit lamp delivery system of Green laser Photocoagulator (Nidex Inc., Japan), and microscope slide glass with 10 mg/mL hyaluronic acid (SIGMA) used as a contact lens. The laser power was 200 mW for 0.1 second and spot diameter was 100 μm. At the time of laser burn, bubble production was observed; which is an indication of rupture of Bruch's membrane which is important for CNV generation.\nAfter animals were anesthetized, and the right pupil dilated (as mentioned above), the right eye of the animal received the compound or vehicle by an injection (3 μL/eye) at doses of 0.3 to 30 nmol/eye on Day 3. The compounds were dissolved or suspended in CBS, PBS, or other adequate vehicles before injection.\nOn Day 10, the animals were anesthetized with ether, and high molecular weight fluorescein isothiocyanate (FITC)-dextran (SIGMA, 2×106 MW) was injected via a tail vein (20 mg/rat). About 30 min after FITC-dextran injection, animals were euthanized by ether or carbon dioxide, and the eyes were removed and fixed with 10% formaline neutral buffer solution. After over 1 hour of fixation, RPE-choroid-sclera flat mounts were obtained by removing comea, lens and retina from the eyeballs. The flat mounts were mounted in 50% glycerol on a microscope slide, and the portion burned by laser was photographed using a fluorescence microscope (Nikon Corporation, excitation filter: 465-495 nm, absorption filter: 515-555 nm). The CNV area was obtained by measurement of hyper-fluorescence area observed on the photograph using Scion image.\nThe average CNV area of 6 burns was used as an individual value of CNV area, and the average CNV area of compound treated group was compared with that of the vehicle-treated group."}, "VEGFR2 (KDR)": {"molecular_target": "T1, VEGFR2 (KDR) (Homo sapiens, UniProt P35968)", "T1 construct": "made in house; host or cells: Sf9 cells (Spodoptera frugiperda), baculovirus (Bac-to-Bac)", "T1 sequence (P35968 806-1356)": "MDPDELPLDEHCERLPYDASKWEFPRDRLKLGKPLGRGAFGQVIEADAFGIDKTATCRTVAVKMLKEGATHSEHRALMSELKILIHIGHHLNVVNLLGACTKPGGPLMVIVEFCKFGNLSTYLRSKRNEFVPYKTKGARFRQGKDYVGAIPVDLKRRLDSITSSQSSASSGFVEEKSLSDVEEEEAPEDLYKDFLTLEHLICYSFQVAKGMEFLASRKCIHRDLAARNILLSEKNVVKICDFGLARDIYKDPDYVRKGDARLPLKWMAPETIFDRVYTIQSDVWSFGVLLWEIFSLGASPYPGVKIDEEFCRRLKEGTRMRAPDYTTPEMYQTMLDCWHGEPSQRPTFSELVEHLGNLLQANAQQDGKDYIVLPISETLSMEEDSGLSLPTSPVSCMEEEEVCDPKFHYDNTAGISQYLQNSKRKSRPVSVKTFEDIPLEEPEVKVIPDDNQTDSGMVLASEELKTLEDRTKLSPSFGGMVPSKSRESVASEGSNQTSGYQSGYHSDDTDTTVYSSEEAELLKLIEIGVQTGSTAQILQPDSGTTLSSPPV", "assay": "In Vitro Receptor Tyrosine Kinase Assay (VEGF Receptor KDR)", "type": "biochemical", "details": "recombinant GST-VEGFR2 806-1356, DELFIA assay, ATP 0.6 uM, enzyme 5 nM; read-out: VEGFR_IC50_UM", "from_the_text": "In Vitro Receptor Tyrosine Kinase Assay (VEGF Receptor KDR)\nThis test measures the ability of compounds to inhibit the enzymatic activity of recombinant human VEGF receptor enzymatic activity.\nA 1.6-kb cDNA corresponding to the catalytic domain of VEGFR2 (KDR) (Genbank accession number AF035121 amino acid 806 to 1356) is cloned into the Pst I site of the pDEST20 Gateway vector (Invitrogen) for the production of a GST-tagged version of that enzyme. This construct is used to generate recombinant baculovirus using the Bac-to-Bac™ system according to the manufacturer's instructions (Invitrogen).\nThe GST-VEGFR2806-1356 protein is expressed in Sf9 cells (Spodoptera frugiperda) upon infection with recombinant baculovirus construct. Briefly, Sf9 cells grown in suspension and maintained in serum-free medium (Sf900 II supplemented with gentamycin) at a cell density of about 2×10^6 cells/ml are infected with the above-mentioned viruses at a multiplicity of infection (MOI) of 0.1 during 72 hours at 27° C. with agitation at 120 rpm on a rotary shaker. Infected cells are harvested by centrifugation at 398 g for 15 min. Cell pellets are frozen at […] until purification is performed.\nAll steps described in cell extraction and purification are performed at 4° C. Frozen Sf9 cell pellets infected with the GST-VEGFR2806-1356 recombinant baculovirus are thawed and gently resuspended in Buffer A (PBS pH 7.3 supplemented with 1 μg/ml pepstatin, 2 μg/ml Aprotinin and leupeptin, 50 μg/ml PMSF, 50 μg/ml TLCK and 10 μM E64 and 0.5 mM DTT) using 3 ml of buffer per gram of cells. Suspension is Dounce homogenized and 1% Triton X-100 is added to the homogenate after which it is centrifuged at 22500 g, 30 min., 4° C. The supernatant (cell extract) is used as starting material for purification of GST-VEGFR2806-1356.\nThe supernatant is loaded onto a GST-agarose column (Sigma) equilibrated with PBS pH 7.3. Following a four column volume (CV) wash with PBS pH 7.3+1% Triton X-100 and 4 CV wash with buffer B (50 mM Tris pH 8.0, 20% glycerol and 100 mM NaCl), bound proteins are step eluted with 5 CV of buffer B supplemented with 5 mM DTT and 15 mM glutathion. GST-VEGFR2806-1356 enriched fractions from this chromatography step are pooled based on U.V. trace i.e. fractions with high O.D.280. Final GST-VEGFR2806-1356 protein preparations concentrations are about 0.7 mg/ml with purity approximating 70%. Purified GST-VEGFR2806-1356 protein stocks are aliquoted and frozen at −80° C. prior to use in enzymatic assay.\nInhibition of VEGFR/KDR is measured in a DELFIA™ assay (Perkin Elmer). The substrate poly(Glu4,Tyr) is immobilized onto black high-binding polystyrene 96-well plates. The coated plates are washed and stored at 4° C. During the assay, the enzyme is pre-incubated with inhibitor and Mg-ATP on ice in polypropylene 96-well plates for 4 minutes, and then transferred to the coated plates. The subsequent kinase reaction takes place at 30° C. for 10-minutes. ATP concentrations in the assay are 0.6 uM for VEGFR/KDR (2× the Km). Enzyme concentration is 5 nM. After incubation, the kinase reactions are quenched with EDTA and the plates are washed. Phosphorylated product is detected by incubation with Europium-labeled anti-phosphotyrosine MoAb. After washing the plates, bound MoAb is detected by time-resolved fluorescence in a Gemini SpectraMax reader (Molecular Devices). Compounds are evaluated over a range of concentrations, and IC50 values (concentration of compounds giving 50% inhibition of enzymatic activity) are determined."}}, "note": "Several values for one entry are separate records, joined by “and”; a condition that tells them apart may be missing. Equal values may be shown once.", "data": [{"smiles": "COCCN(Cc1ccc(-c2cc3nccc(Oc4ccc(Nc5nc6cc(Cl)ccc6[nH]5)cc4F)c3s2)nc1)C(C)=O", "note": "[Compound 64]", "values": [{"measurement": "CNV area, average", "setting": "[1]; 0.3 nmol/eye", "result": 0.085, "unit": "mm^2"}, {"measurement": "CNV area, individual animal", "setting": "[1]; 0.3 nmol/eye", "result": "0.091 mm^2 and 0.094 mm^2 and 0.045 mm^2 and 0.050 mm^2 and 0.116 mm^2 and 0.147 mm^2 and 0.069 mm^2 and 0.084 mm^2 and 0.072 mm^2"}, {"measurement": "CNV area % of control", "setting": "[1]; 0.3 nmol/eye", "result": 105.6, "unit": "%"}, {"measurement": "inhibition (CNV area)", "setting": "[1]; 0.3 nmol/eye", "result": "−5.6"}, {"measurement": "CNV area, average", "setting": "[1]; 1 nmol/eye", "result": 0.077, "unit": "mm^2"}, {"measurement": "CNV area, individual animal", "setting": "[1]; 1 nmol/eye", "result": "0.045 mm^2 and 0.092 mm^2 and 0.101 mm^2 (2×) and 0.088 mm^2 and 0.061 mm^2 and 0.109 mm^2 and 0.056 mm^2 and 0.040 mm^2"}, {"measurement": "CNV area % of control", "setting": "[1]; 1 nmol/eye", "result": 95.3, "unit": "%"}, {"measurement": "inhibition (CNV area)", "setting": "[1]; 1 nmol/eye", "result": 4.7}, {"measurement": "CNV area, average", "setting": "[1]; 3 nmol/eye", "result": 0.065, "unit": "mm^2"}, {"measurement": "CNV area, individual animal", "setting": "[1]; 3 nmol/eye", "result": "0.070 mm^2 (2×) and 0.019 mm^2 and 0.081 mm^2 and 0.084 mm^2 and 0.062 mm^2 and 0.056 mm^2 and 0.086 mm^2 and 0.054 mm^2"}, {"measurement": "CNV area % of control", "setting": "[1]; 3 nmol/eye", "result": 80.0, "unit": "%"}, {"measurement": "inhibition (CNV area)", "setting": "[1]; 3 nmol/eye", "result": 20.0}, {"measurement": "CNV area, average", "setting": "[1]; 10 nmol/eye", "result": 0.045, "unit": "mm^2"}, {"measurement": "CNV area, individual animal", "setting": "[1]; 10 nmol/eye", "result": "0.030 mm^2 and 0.003 mm^2 and 0.051 mm^2 and 0.058 mm^2 and 0.064 mm^2 and 0.035 mm^2 and 0.097 mm^2 and 0.039 mm^2 and 0.032 mm^2"}, {"measurement": "CNV area % of control", "setting": "[1]; 10 nmol/eye", "result": 56.2, "unit": "%"}, {"measurement": "inhibition (CNV area)", "setting": "[1]; 10 nmol/eye", "result": 43.8}, {"measurement": "CNV area, average", "setting": "[1]; 30 nmol/eye", "result": 0.036, "unit": "mm^2"}, {"measurement": "CNV area, individual animal", "setting": "[1]; 30 nmol/eye", "result": "0.047 mm^2 and 0.031 mm^2 and 0.036 mm^2 and 0.048 mm^2 and 0.037 mm^2 and 0.027 mm^2 (2×) and 0.051 mm^2 and 0.019 mm^2"}, {"measurement": "CNV area % of control", "setting": "[1]; 30 nmol/eye", "result": 44.4, "unit": "%"}, {"measurement": "inhibition (CNV area)", "setting": "[1]; 30 nmol/eye", "result": 55.6}, {"measurement": "IC50", "setting": "VEGFR2 (KDR)", "result": 31, "unit": "nM"}]}]}
